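Tested at 5 concentrations; 48 h exposure; 96-well plates; endpoints linearly interpolated, else capped at highest concentration. GI50 marks 50% less growth.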 Activity calls are given as the source filed them. Cut-off read from the data, not from the text of the source: active = GI50 up to about 1.1 µM and inactive = higher.
Columns and labels:
Assay in all cases: growth of human tumour cells (NCI), 48 h
[1] = test system: U-251
[2] = test system: NCI-H522
[3] = test system: NCI-H23
[4] = test system: MDA-N
[5] = test system: SK-MEL-28
[6] = test system: HT-29
[7] = test system: PC-3
[8] = test system: SW-620
[9] = test system: ACHN
[10] = test system: COLO 205
[11] = test system: OVCAR-8
[12] = test system: DU-145
[13] = test system: NCI-H226
[14] = test system: KM12
[15] = test system: SF-268
[16] = test system: HOP-92
[17] = test system: M14
[18] = test system: 786-0
[19] = test system: K562
[20] = test system: NCI/ADR-RES

Measured: GI50

O=C(OC[C@H]1C[C@H]2C(=O)CCC[C@H]2O1)c1ccccc1
inactive: [1] > 100 µM | [2] > 100 µM | [3] > 100 µM | [4] > 100 µM | [5] > 100 µM | [6] > 100 µM | [7] > 100 µM | [8] > 100 µM | [9] > 100 µM | [10] > 100 µM | [11] > 100 µM | [12] > 100 µM | [13] > 100 µM | [14] > 100 µM | [15] > 100 µM | [16] > 100 µM | [17] > 100 µM | [18] > 100 µM | [19] > 100 µM | [20] > 100 µM

O=C(O)CNC(=O)c1ccccc1O [SALICYLURIC ACID]
inactive: [1] > 100 µM | [2] > 100 µM | [3] > 100 µM | [4] > 100 µM | [5] > 100 µM | [6] > 100 µM | [7] > 100 µM | [8] > 100 µM | [9] > 100 µM | [10] > 100 µM | [11] > 100 µM | [12] > 100 µM | [13] > 100 µM | [14] > 100 µM | [15] > 100 µM | [16] > 100 µM | [17] > 100 µM | [18] > 100 µM | [19] > 100 µM | [20] > 100 µM

O=c1[nH]c2cc3cccnc3c(Cl)c2nc1C(F)(F)F
inactive: [1] 50.8 µM | [2] 28.6 µM | [3] 25 µM | [4] 37.2 µM | [5] 62.8 µM | [6] 51.3 µM | [7] 52 µM | [8] > 100 µM | [9] 35.9 µM | [10] 36.4 µM | [11] 28.8 µM | [12] 54.8 µM | [13] 30.1 µM | [14] 21 µM | [15] 60.7 µM | [16] 7.16 µM | [17] 28.8 µM | [18] 72.4 µM | [19] 29.7 µM | [20] 33.3 µM

O=C(O)COc1cccc2ccccc(=O)c12
inactive: [1] > 100 µM | [2] > 100 µM | [3] > 100 µM | [4] > 100 µM | [5] > 100 µM | [6] > 100 µM | [7] > 100 µM | [8] > 100 µM | [9] > 100 µM | [10] > 100 µM | [11] > 100 µM | [12] > 100 µM | [13] > 100 µM | [14] > 100 µM | [15] > 100 µM | [16] > 100 µM | [17] > 100 µM | [18] > 100 µM | [19] > 100 µM | [20] > 100 µM

COc1cc2nc3n(c2cc1OC)C(O)c1c(Cl)nc(SC)nc1S3 (stereo not given)
inactive: [1] 3.37 µM | [2] 1.72 µM | [3] 4.21 µM | [4] 3.36 µM | [5] 6.19 µM | [6] 3.22 µM | [7] 2.75 µM | [8] 3.33 µM | [9] 3.3 µM | [10] 4.78 µM | [11] 2.59 µM | [12] 2.39 µM | [13] 3.35 µM | [14] 2.68 µM | [15] 3.78 µM | [16] 12.2 µM | [17] 2.67 µM | [18] 2.35 µM | [19] 3.03 µM | [20] 3.36 µM

CNC1=C/C(=N/C2=CC(=N/C(=C\C#N)C(C)(C)O)/OC2(C)C)OC1(C)C
inactive: [1] 7.1 µM | [2] 13 µM | [3] 33.3 µM | [4] 21.3 µM | [5] 33.2 µM | [6] 11.4 µM | [7] 13.2 µM | [8] 5.4 µM | [9] 4.32 µM | [10] 6.56 µM | [11] 9.84 µM | [12] 12 µM | [13] 20.8 µM | [14] 13.5 µM | [15] 4.31 µM | [16] 11.9 µM | [17] 11.8 µM | [18] 11.8 µM | [19] 3.12 µM | [20] 40.4 µM

CC[C@H](C)[C@H]1NC(=O)[C@@H](NC(=O)[C@@H](CC(C)C)N(C)C(=O)C2CCCN2C(=O)[C@H](C)O)[C@@H](C)OC(=O)[C@H](Cc2ccc(OC)cc2)N(C)C(=O)[C@@H]2CCCN2C(=O)[C@H](CCCCNC(=O)OCc2ccccc2)NC(=O)[C@H](C)C(=O)[C@H](C(C)C)OC(=O)C[C@@H]1O (stereo not given in full)
inactive: [1] 3.55 µM | [2] 3.37 µM | [3] 10.7 µM | [4] 5.68 µM | [5] 12.2 µM | [6] 3.37 µM | [7] 3.93 µM | [8] 7.74 µM | [9] 20.1 µM | [10] 3.91 µM | [11] 19.7 µM | [12] 9.84 µM | [13] 12.7 µM | [14] 4.73 µM | [15] 3.91 µM | [16] 3.49 µM | [17] 4.13 µM | [18] 5.56 µM | [19] 7.29 µM | [20] > 25 µM

Source: ChEMBL document CHEMBL1201862, “PubChem BioAssay data set” (2004)
